# Measurements from US9345738B2, “Methods for the prevention or treatment of no-reflow following ischemia/reperfusion injury” (Stealth BioTherapeutics Corp., priority 2010, dated 2016).
# Non-standard residues stand in square brackets, D forms with d. No end group written: not given here.
# Legend:
# mu-opioid receptor = conditions: stated in the description, no data shown; cited from earlier work
# [1] = test system: kidney, ischemia/reperfusion insult; test: Rat model of renal ischemia-reperfusion; type: in vivo, Sprague Dawley rat; conditions: rats; 3 mg/kg 30 min before ischemia and before reperfusion; 45 min ischemia and 24 h reperfusion; predicted
# Method: Sprague Dawley rats (250-300 g) are assigned to three groups: (1) sham surgery group without I/R; (2) I/R+saline vehicle treatment; (3) I/R+D-Arg-2′,6′-Dmt-Lys-Phe-NH2 (acetate salt) treatment. D-Arg-2′,6′-Dmt-Lys-Phe-NH2 (acetate salt) (3 mg/kg, dissolved in saline) is administered to rats 30 min before ischemia and immediately before onset of reperfusion. The control rats are given saline alone on the same schedule. Rats are anesthetized with a mixture of ketamine (90 mg/kg, i.p.) and xylazine (4 mg/kg, i.p.). The left renal vascular pedicle is occluded temporarily using a micro-clamp for 30 or 45 min. At the end of the ischemic period, reperfusion is established by removing of the clamp. At that time, the contralateral right kidney is removed. After 24 h reperfusion, animals are sacrificed and blood samples were obtained by cardiac puncture. Renal function is determined by blood urea nitrogen (BUN) and serum creatinine (BioAssay Systems DIUR-500 and DICT-500).
# Analysis of No-reflow Zones, and Necrosis. The kidneys are sliced transversely into 6-8 sections. The slices are photographed under ultraviolet light to identify the region of no reflow. The areas of no-reflow in each slice are digitized using Image J (supplier Rasband WS, Image J, National Institutes of Health). […]
# [2] = test system: anatomic zone of no-reflow in the heart; test: No-reflow phenomenon in humans with ST-segment elevation treated with PCI; type: in vivo, human; conditions: patients; iv bolus less than 10 min before direct stenting; vs placebo; predicted
# Method: Men and women, 18 years of age or older, who present within 6 hours after the onset of chest pain, who have ST-segment elevation of more than 0.1 mV in two contiguous leads, and for whom the clinical decision is made to treat with percutaneous coronary intervention (PCI) are eligible for enrollment. Patients are eligible for the study whether they are undergoing primary PCI or rescue PCI. Occlusion of the culprit coronary artery (Thrombolysis in Myocardial Infarction [TIMI] flow grade 0) at the time of admission is also a criterion for inclusion.
# Left ventricular and coronary angiography is performed with the use of standard techniques, just before revascularization. […]
# The primary end point is the size of the anatomic zone of no-reflow as assessed by one or more imaging techniques. Re-flow phenomenon is assessed using myocardial contrast echocardiography, coronary angiography, myocardial blush, coronary doppler imaging, electrocardiography, nuclear imaging single-photon emission CT, using thallium or technetium-99m, or PET. […] Post-contrast delayed enhancement is used on day 4±1, day 30±3 and 6+1.5 months after successful PCI and stenting to quantify infracted myocardium. This is defined quantitatively by an intensity of the myocardial post-contrast signal that is more than 2 SD above that in a reference region of remote, non-infarcted myocardium within the same slice. […]
# [3] = test system: brain, ischemia/reperfusion insult; test: Mouse model of cerebral ischemia-reperfusion (occlusion of the middle cerebral artery); type: in vivo; conditions: wild type mice; 2-5 mg/kg ip at 0, 6, 24 and 48 h after ischemia; predicted
# Method: Cerebral ischemia initiates a cascade of cellular and molecular events that lead to brain damage. One such event is an anatomic zone of no-reflow. Cerebral ischemia is induced by occlusion of the right middle cerebral artery for 30 min. Wild-type (WT) mice are given either saline vehicle (Veh) (ip) or D-Arg-2′,6′-Dmt-Lys-Phe-NH2 (acetate salt) (2-5 mg/kg) at 0, 6, 24 and 48 h after ischemia. Mice are killed 3 days after ischemia. The brains are sliced transversely into 6-8 sections. The slices are photographed under ultraviolet light to identify the region of no-reflow. The areas of no-reflow in each slice are digitized using Image J (supplier Rasband WS, Image J, National Institutes of Health). The areas in each slice are multiplied by the weight of the slice and the results will summed in order to obtain the mass of the no-reflow areas.
# As such, the peptide D-Arg-2′,6′-Dmt-Lys-Phe-NH2 is effective in reducing the incidence of no-reflow caused by ischemia-reperfusion in the brain.
# [4] = test system: rabbit heart, ischemia/reperfusion insult; test: Rabbit model of AMI: regional myocardial ischemia (30 min CAO) and reperfusion (3 h); risk zone, no-reflow zone and infarct size; type: in vivo, New Zealand White rabbit; conditions: for No-reflow/area at risk / No-reflow/area of necrosis: all hearts with AR >10% of LV, mean ± SEM; for Mean IA/AR: low dose
# [5] = test system: plasma membrane of several mammalian cell types; conditions: Zhao et al., 2003; cited from earlier work
# [6] = Group 1, N=15, infusion from 10′ after CAO
# [7] = Group 2, N=17, infusion from 20′ after CAO
# [8] = Group 3, N=17, infusion from 29′ after CAO
substance,measurement,setting,value
F[dR]FK-NH2,mu-opioid receptor agonist activity,mu-opioid receptor,does not have mu-opioid receptor agonist activity
"D-Arg-2′,6′-Dmt-Lys-Phe-NH2",anatomic zone of no-reflow in the kidney,[1],prevents or reduces the anatomic zone of no-reflow
same,size of the anatomic zone of no-reflow,[2],smaller anatomic zone of no-reflow than that seen with placebo
same,anatomic zone of no-reflow in the brain,[3],prevent or reduce the anatomic zone of no-reflow
same,infarct volume,[3],significant reduction in infarct volume
same,No-reflow/area at risk,[4]; [6],0.23 ± 0.02
same,No-reflow/area of necrosis,[4]; [6],0.74 ± 0.04
same,No-reflow/area at risk,[4]; [7],0.21 ± 0.03
same,No-reflow/area of necrosis,[4]; [7],0.63 ± 0.05
same,No-reflow/area at risk,[4]; [8],0.21 ± 0.03
same,No-reflow/area of necrosis,[4]; [8],0.70 ± 0.09
same,no-reflow for any given risk zone size,"[4]; rabbit AMI, ANCOVA, treated groups combined vs control p=0.0085",significantly reduced
same,infarct size reduced by up to,"[4]; rabbit AMI, in some experiments (Table 13; FIG. 5)",up to 44.7%
same,"infarct size reduced, average","[4]; rabbit AMI, in some experiments (not shown)",11%
same,Results: reduction of mean IA/AR from placebo,"[4]; rabbit AMI, infusion started 10 min into 30 min of ischemia",↓44.7% from placebo
same,Results: reduction of mean IA/AR from placebo,"[4]; rabbit AMI, infusion started 20 min into 30 min of ischemia",↓25.5% from placebo
same,Results: reduction of mean IA/AR from placebo,"[4]; rabbit AMI, infusion started 30 min into ischemia immediately prior to reperfusion",↓25.5% from placebo
same,Mean IA/AR,"[4]; rabbit AMI, iv infusion started 10 min into 30 min of ischemia",20.7%
same,Mean IA/AR,"[4]; rabbit AMI, iv infusion started 20 min into 30 min of ischemia",27.9%
same,Mean IA/AR,"[4]; rabbit AMI, iv infusion started 30 min into ischemia immediately prior to reperfusion",26.7%
same,reduction in the extent of no-reflow compared with control hearts (trend),"[4]; rabbit AMI, treated vs control",21%
same,"Necrotic area divided by area-at-risk (AN/AR), mean","[4]; rabbits with AR/LV >15%, all active groups combined, N=48",0.318
same,mu-opioid receptor agonist activity,mu-opioid receptor,does not have mu-opioid receptor agonist activity
"2′,6′-Dmt-D-Arg-Phe-Lys-NH2",penetration of the plasma membrane,[5],readily penetrates the plasma membrane of several mammalian cell types in an energy-independent manner
Tyr-D-Arg-Phe-Lys-NH2,mu-opioid receptor agonist activity,mu-opioid receptor,has mu-opioid receptor agonist activity
